Test results from patent US20020086278A1, “CHROMOGENIC MEDIA CONTAINING BLOOD OR HEMIN” (priority 1999, published 2002).
Where “and” joins values, the source holds several entries; their conditions need not be identical. Identical values can stand only once. Counter-ions that a name gives are not always drawn.

Legend:
[1] = test system: Serratia marcescens (sema); assay: Example 3: colony color on chromogenic TSA II with 5% sheep blood (chromogen in medium); type: cell-based
S pyogenes (stpy) = assay: as above; type: cell-based; details: for Colony Color: 21 h
[2] = test system: Streptococcus agalactiae (stag); assay: as above; type: cell-based
[3] = test system: Klebsiella pneumoniae (klpn); assay: as above; type: cell-based; details: CO2, 21 h
[4] = test system: Pseudomonas aeruginosa (psae); assay: as above; type: cell-based; details: for Colony Color: CO2, 21 h
[5] = test system: Streptococcus pneumoniae 6303; assay: Example 1: growth and colony color on plates surface-spread with chromogen; type: cell-based
Escherichia coli 25922 = assay: as above; type: cell-based; details: E. coli 25922
[6] = test system: E. coli (non-O157) (esco); type: cell-based
cakr 34135 = assay: Example 3: colony color on chromogenic TSA II with 5% sheep blood (chromogen in medium); type: cell-based; details: CO2, 21 h
[7] = test system: Staphylococcus aureus (stau); assay: as above; type: cell-based
Salmonella spp. (sasp) = type: cell-based
[8] = test system: Entercoccus faecalis (enfa); assay: Example 3: colony color on chromogenic TSA II with 5% sheep blood (chromogen in medium); type: cell-based; details: for Colony Color: 21 h
[9] = Precipitate of chromogen on pre-plated media; type: physicochemical; details: 50 μl DMSO solution on pre-plated media
Description: 50 μl of each chromogen solution was added to the surface of each of the following pre-plated media (one chromogen solution per plate):
The solution was dispersed using a spreader and allowed to dry 3-4 hours in a hood.

[10] = test system: Branhamella catarrhalis (brca); assay: Example 3: colony color on chromogenic TSA II with 5% sheep blood (chromogen in medium); type: cell-based; details: brca 25238; CO2; 21 h
S. pneumoniae (stpn) = assay: as above; type: cell-based
[11] = test system: Gardnerella vaginalis 14019; assay: Example 1: growth and colony color on plates surface-spread with chromogen; type: cell-based; details: Summary of Table I; G. vaginalis 14014
S. milleri (stmi) = assay: Example 3: colony color on chromogenic TSA II with 5% sheep blood (chromogen in medium); type: cell-based
Group B Strep. 12386 = assay: Example 1: growth and colony color on plates surface-spread with chromogen; type: cell-based; details: for Color / Growth: Group B Strep 12386
[12] = test system: Aeromonas hydrophilia (aehy); assay: Example 3: colony color on chromogenic TSA II with 5% sheep blood (chromogen in medium); type: cell-based; details: for Colony Color: CO2, 21 h
Candida albicans (caal) = assay: as above; type: cell-based; details: for Colony Color: caal 10231, 24 h
E. coli 25922 = assay: Example 2: effect of incubation conditions on colony color formation; type: cell-based, Escherichia coli
S. agalactiae 12386 = assay: as above; type: cell-based, Streptococcus agalactiae
E. faecium (enfu) = assay: Example 3: colony color on chromogenic TSA II with 5% sheep blood (chromogen in medium); type: cell-based; details: for Colony Color: enfu 49032, 21 h
[13] = chromogenic TSA II with 5% Sheep Blood, 0.1 g/l, 1 strain tested
[14] = chromogenic TSA II with 5% Sheep Blood, 0.1 g/l
[15] = chromogenic TSA II with 5% Sheep Blood, 0.1 g/l, 3 strains tested
[16] = chromogenic TSA II with 5% Sheep Blood, 0.1 g/l, 6 strains tested
[17] = Summary of Table I, Group B Strep. 12386

For O=P(O)(O)Oc1c[nH]c2cc(Cl)c(Br)cc12 [Mag-Phos, 5-Br-6-Cl-3-indolyl-phosphate, p-touidine salt], which “Colony Color (Summary)” value [1, 13] is on record?
Its value is 0.

What about the “Colony Color” value ([1]; sema 13880, CO2, 21 h) of the same compound?
The value was 0.

What about the Growth vs. control (S pyogenes (stpy); [14]) of the same compound?
Its Growth vs. control is “<grth”.

And the “Colony Color” value (S pyogenes (stpy); stpy 1027, CO2)?
The value was “vlp”.

What about the “Colony Color” value (S pyogenes (stpy); stpy 1028, CO2) of the same compound?
Its value is “vlp”.

What about the “Colony Color” value (S pyogenes (stpy); stpy 1029, CO2) of the same compound?
Its value is “vlp”.

And the “Colony Color” value (S pyogenes (stpy); stpy 1030, CO2)?
The value was “vlp”.

What about the “Colony Color” value (S pyogenes (stpy); stpy 19615, CO2) of the same compound?
Its value is “lp”.

What about the “Colony Color” value (S pyogenes (stpy); stpy 19615, air) of the same compound?
The value was “lp”.

And the “Colony Color” value (S pyogenes (stpy); stpy 49117, CO2)?
Its value is “lp”.

What about the “Colony Color” value (S pyogenes (stpy); stpy 51339, CO2) of the same compound?
The value was “lp”.

What about the “Colony Color” value [2] of the same compound?
Its value is “lp”.

What about the “Colony Color (Summary)” value [2] of the same compound?
Its value is “+”.

And the “Colony Color” value ([3]; klpn 13883)?
The value was 0.

What about the “Colony Color” value ([3]; klpn 33606) of the same compound?
The value was 0.

What about the “Colony Color (Summary)” value [4, 15] of the same compound?
Its value is 0.

And the “Colony Color” value ([4]; psae 9027)?
Its value is 0.

What about the “Colony Color” value ([4]; psae 15442) of the same compound?
The value was 0.

What about the “Colony Color” value ([4]; psae 33607) of the same compound?
Its value is 0.

What about the “Substrates Producing Growth Inhibition” value ([5]; Summary of Table I, S. pneumoniae 6303) of the same compound?
The value was “Mag-phos”.

What about the Growth ([5]; TSA II 5SB, S. pneu: 6303) of the same compound?
The Growth was “<”.

And the Color (Escherichia coli 25922; Choc II)?
The Color was “purple”.

What about the “Substrates Producing Color” value (Escherichia coli 25922; Summary of Table I) of the same compound?
Its value is “Mag-phos”.

And the Color (Escherichia coli 25922; TSA II 5SB)?
The Color was “purple”.

And the Color (Escherichia coli 25922; TSA Plain)?
The Color was “purple”.

What about the “Colony Color” value [6] of the same compound?
Its value is “lp and lgb and 0”.

And the “Colony Color” value (cakr 34135)?
The value was “lgp”.

What about the “Colony Color” value ([7]; stau 1006, CO2, 21 h) of the same compound?
The value was 0.

What about the “Colony Color” value ([7]; stau 1007, CO2, 21 h) of the same compound?
The value was 0.

What about the “Colony Color” value ([7]; stau 1008, CO2, 21 h) of the same compound?
The value was “vlp”.

What about the “Colony Color” value ([7]; stau 1009, CO2, 21 h) of the same compound?
The value was “vlp”.

What about the “Colony Color” value ([7]; stau 25923, CO2, 24 h) of the same compound?
The value was “lp”.

What about the “Colony Color” value ([7]; stau 25923, air, 24 h) of the same compound?
Its value is “lp”.

What about the “Colony Color (Summary)” value (Salmonella spp. (sasp)) of the same compound?
Its value is “+”.

What about the “Colony Color (Summary)” value [8, 16] of the same compound?
Its value is “+”.

And the “Colony Color” value ([8]; enfa 597, CO2)?
Its value is “lp”.

What about the “Colony Color” value ([8]; enfa 597, air) of the same compound?
Its value is “lp”.

What about the “Colony Color” value ([8]; enfa 10741, CO2) of the same compound?
Its value is “lp”.

And the “Colony Color” value ([8]; enfa 12953, CO2)?
The value was “lp”.

And the “Colony Color” value ([8]; enfa 14506, CO2)?
Its value is “lp”.

And the “Colony Color” value ([8]; enfa 29212, CO2)?
Its value is “lp”.

What about the “Precipitate when spread / placed on the plated media” value [9] of the same compound?
Its value is “somewhat insoluble”.

What about the “Colony Color” value [10] of the same compound?
The value was 0.

What about the Growth vs. control (S. pneumoniae (stpn); [14]) of the same compound?
Its Growth vs. control is “<growth”.

And the “Colony Color (Summary)” value (S. pneumoniae (stpn); [16])?
Its value is 0,.

And the “Colony Color” value (S. pneumoniae (stpn); stpn 1259, CO2, 21 h)?
The value was 0.

What about the “Colony Color” value (S. pneumoniae (stpn); stpn 1260, CO2, 21 h) of the same compound?
Its value is 0.

What about the “Colony Color” value (S. pneumoniae (stpn); stpn 1628, CO2, 21 h) of the same compound?
Its value is 0.

What about the “Colony Color” value (S. pneumoniae (stpn); stpn 6303, CO2, 24 h) of the same compound?
Its value is 0.

And the “Colony Color” value (S. pneumoniae (stpn); stpn 6303, air, 24 h)?
Its value is “db”.

What about the “Colony Color” value (S. pneumoniae (stpn); stpn 6305, CO2, 24 h) of the same compound?
The value was 0.

And the “Colony Color” value (S. pneumoniae (stpn); stpn 6305, air, 24 h)?
The value was 0.

What about the “Substrates Producing Growth Inhibition” value [11] of the same compound?
The value was “Mag-phos”.

And the Growth vs. control (S. milleri (stmi); [14])?
Its Growth vs. control is “no growth”.

What about the “Colony Color” value (S. milleri (stmi); stmi 6249, air, 21 h) of the same compound?
Its value is 0.

And the Color (Group B Strep. 12386; Choc II)?
The Color was “purple”.

What about the “Substrates Producing Color” value (Group B Strep. 12386; [17]) of the same compound?
The value was “Mag-phos”.

What about the “Substrates Producing Growth Inhibition” value (Group B Strep. 12386; [17]) of the same compound?
The value was “Slight inhib. w/ X-”.

And the Color (Group B Strep. 12386; TSA II 5SB)?
The Color was “purple (a)”.

What about the Growth (Group B Strep. 12386; TSA II 5SB) of the same compound?
Its Growth is “<”.

And the Color (Group B Strep. 12386; TSA Plain)?
Its Color is “purple”.

What about the Growth (Group B Strep. 12386; TSA Plain) of the same compound?
Its Growth is “<”.

What about the “Colony Color” value ([12]; aehy 7965) of the same compound?
Its value is “gp”.

What about the “Colony Color” value ([12]; aehy 7966) of the same compound?
The value was “gp”.

What about the “Colony Color (Summary)” value [12, 15] of the same compound?
The value was “+”.

What about the “Colony Color” value (Candida albicans (caal); CO2) of the same compound?
Its value is 0.

What about the “Colony Color” value (Candida albicans (caal); air) of the same compound?
Its value is 0.

And the “Colony Color (Summary)” value (Candida albicans (caal); chromogenic TSA II with 5% Sheep Blood, 0.1 g/l, 2 strains tested)?
The value was 0.

And the Colony Color (E. coli 25922)?
Its Colony Color is “purple (m)”.

What about the Colony Color (S. agalactiae 12386) of the same compound?
The Colony Color was “purple (m)”.

And the “Colony Color (Summary)” value (E. faecium (enfu); [13])?
Its value is “+”.

And the “Colony Color” value (E. faecium (enfu); CO2)?
Its value is “vlgp”.

What about the “Colony Color” value (E. faecium (enfu); air) of the same compound?
The value was “lgp”.
